The results in this text go back to patent US20140107109A1, “AMINO-DIHYDROTHIAZINE AND AMINO-DIOXIDO DIHYDROTHIAZINE COMPOUNDS AS BETA-SECRETASE ANTAGONISTS AND METHODS OF USE” (Amgen Inc., priority 2012, published 2014).

A word on the IC50: it is the point on the concentration scale where inhibition reaches its midpoint.

In experiment [1] the target is Beta Secretase enzyme (BACE1) (Homo sapiens, UniProt P56817). Briefly: In vitro enzymatic BACE FRET assay. The settings on record: average IC50, enzyme assay; read-out: BACE1 FRET assay IC50. In kind it is biochemical. The method in brief:
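Readout: dequenched fluorescence (ex 488 nm/[…]) after neutralizing with Tris buffer. Reactions, begun by adding 50 nM quenched peptide substrate spanning the BACE cleavage site, were incubated one hour at pH 4.2 in 0.05 M acetate with 100 uM genapol and 10% final DMSO.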

Experiment [2] has as its system Aβ40 in conditioned medium of cells stably expressing Amyloid Precursor Protein (APP). Briefly: In vitro BACE cell-based assay (HEK cell assay), Aβ40 sandwich ELISA. The following applies: Homo sapiens, HEK293; average IC50, cell assay. The essentials:
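Aβ40 in conditioned medium was quantified by time-resolved fluorescence sandwich ELISA (pAb40 capture 3 h at 4 °C, biotin-6E10 detection 2 h at 4 °C) after 24 h compound exposure of APP-expressing cells. Doses spanned 10 points from 100 μM or 10 μM top, 0.1% DMSO; IC50 was derived from percent of control.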
A general note: In an ELISA, binding on a coated surface is turned into a signal by an enzyme label.

The next experiment deals with T1, Cathepsin D (Cat D) (Homo sapiens, UniProt P07339).
T1 construct: Recombinant Cat D was expressed in CHO cells; made in house; host or cells: CHO cells
Briefly: In vitro enzymatic Cathepsin D (Cat D) FRET assay. The experiment is classed as biochemical. The settings on record: read-out: CatD IC50. The essentials: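 FRET read-out: a fluorophore/quencher-labelled peptide substrate is cleaved by 9 nM Cat D (recombinant, CHO-expressed) following a one-hour preincubation with inhibitor dilutions in DMSO. Tris buffer added to neutralize pH ends the reaction before fluorescence measurement.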

Sequence of Beta Secretase enzyme (BACE1) (P56817 46-501): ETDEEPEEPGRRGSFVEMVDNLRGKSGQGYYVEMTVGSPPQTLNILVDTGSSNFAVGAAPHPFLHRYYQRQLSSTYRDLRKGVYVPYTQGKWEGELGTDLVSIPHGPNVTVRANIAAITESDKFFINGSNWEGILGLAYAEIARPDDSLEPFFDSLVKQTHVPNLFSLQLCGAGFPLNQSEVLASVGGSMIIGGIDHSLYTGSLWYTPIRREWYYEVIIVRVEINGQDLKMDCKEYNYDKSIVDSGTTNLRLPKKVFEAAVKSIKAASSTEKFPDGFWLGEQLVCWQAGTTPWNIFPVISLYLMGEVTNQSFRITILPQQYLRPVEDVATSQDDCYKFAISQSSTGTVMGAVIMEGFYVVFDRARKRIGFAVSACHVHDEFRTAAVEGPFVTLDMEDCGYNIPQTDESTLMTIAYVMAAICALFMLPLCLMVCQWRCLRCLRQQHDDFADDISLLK
T1 sequence (P07339 65-412, species assumed): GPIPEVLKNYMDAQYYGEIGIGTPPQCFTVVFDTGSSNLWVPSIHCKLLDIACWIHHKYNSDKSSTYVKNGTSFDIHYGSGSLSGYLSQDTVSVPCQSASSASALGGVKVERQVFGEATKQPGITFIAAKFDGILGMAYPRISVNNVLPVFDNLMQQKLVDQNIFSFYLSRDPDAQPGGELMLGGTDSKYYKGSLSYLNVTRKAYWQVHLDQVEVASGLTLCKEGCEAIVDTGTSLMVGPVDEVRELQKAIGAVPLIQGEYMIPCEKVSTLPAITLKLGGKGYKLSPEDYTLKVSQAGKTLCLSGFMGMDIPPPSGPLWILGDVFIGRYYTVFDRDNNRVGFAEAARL

Turning to `CC1(C)C(N)=N[C@](C)(c2cc(Nc3ncnc4cc(Cl)cnc34)cnc2F)CS1(=O)=O` [Example 225, N-(5-((3R)-5-amino-3,6,6-trimethyl-1,1-dioxido-3,6-dihydro-2H-1,4-thiazin-3-yl)-6-fluoro-3-pyridinyl)-7-chloropyrido[3,2-d]pyrimidin-4-amine], the IC50 is 3.28 nM in experiment [1], 12.2 nM in experiment [2] and 33000 nM on Cathepsin D (Cat D).

With `CC#CCOc1cnc2c(Nc3ccc(F)c([C@]4(C)CS(=O)(=O)[C@@](C)(F)C(N)=N4)c3)nccc2c1` [Example 226, N-(3-((3R,6R)-5-amino-6-fluoro-3,6-dimethyl-1,1-dioxido-3,6-dihydro-2H-1,4-thiazin-3-yl)-4-fluorophenyl)-3-(2-butyn-1-yloxy)-1,7-naphthyridin-8-amine], the values for the IC50 (in experiment [1]; in experiment [2]; on Cathepsin D (Cat D)) were 0.74 nM, 5.74 nM and > 400000 nM, respectively.

Regarding `C[C@@]1(c2cc(Nc3nccc4cc(Cl)cnc34)cnc2F)CS(=O)(=O)C2(CCC2)C(N)=N1` [Example 230, N-(5-((7R)-9-amino-7-methyl-5,5-dioxido-5-thia-8-azaspiro[3.5]non-8-en-7-yl)-6-fluoro-3-pyridinyl)-3-chloro-1,7-naphthyridin-8-amine], the IC50 was 3.76 nM in experiment [1], 18.8 nM in experiment [2] and 23200 nM at Cathepsin D (Cat D).

Take `COc1cnc2c(Nc3cnc(F)c([C@]4(C)CS(=O)(=O)C5(CCC5)C(N)=N4)c3)nccc2n1` [Example 231, N-(5-((7R)-9-amino-7-methyl-5,5-dioxido-5-thia-8-azaspiro[3.5]non-8-en-7-yl)-6-fluoro-3-pyridinyl)-2-methoxypyrido[3,4-b]pyrazin-5-amine]: the IC50 in experiment [1] was 6.41 nM; in experiment [2], 18.1 nM; at Cathepsin D (Cat D), 163000 nM.

On to `COc1cnc2c(Nc3ccc(F)c([C@@]4(C)N=C(N)C5(CCC5)S(=O)(=O)C4F)c3)nccc2n1` (stereo partly drawn) [Example 232, N-(3-((7R)-9-amino-6-fluoro-7-methyl-5,5-dioxido-5-thia-8-azaspiro[3.5]non-8-en-7-yl)-4-fluorophenyl)-2-methoxypyrido[3,4-b]pyrazin-5-amine], for which the IC50 in experiment [1] is 13.1 nM; in experiment [2] it was 78.4 nM; on Cathepsin D (Cat D), 303000 nM.

`CC1(C)C(N)=N[C@](CF)(c2cc(Nc3ncc(F)c4cc(Cl)cnc34)ccc2F)CS1(=O)=O` [Example 233, N-(3-((3S)-5-amino-3-(fluoromethyl)-6,6-dimethyl-1,1-dioxido-3,6-dihydro-2H-1,4-thiazin-3-yl)-4-fluorophenyl)-3-chloro-5-fluoro-1,7-naphthyridin-8-amine]: the values for the IC50 (in experiment [1]; in experiment [2]; at Cathepsin D (Cat D)) were 0.31 nM, 84.5 nM and 143000 nM, respectively.

Regarding `CC1(C)C(N)=N[C@](CF)(c2cc(Nc3nccc4nc(C(F)(F)F)cnc34)ccc2F)CS1(=O)=O` [Example 234, N-(3-((3S)-5-amino-3-(fluoromethyl)-6,6-dimethyl-1,1-dioxido-3,6-dihydro-2H-1,4-thiazin-3-yl)-4-fluorophenyl)-2-(trifluoromethyl)pyrido[3,4-b]pyrazin-5-amine], the IC50 was 2.03 nM in experiment [1], 105 nM in experiment [2] and > 14800 nM on Cathepsin D (Cat D).

Regarding `CC1(C)C(N)=N[C@](CF)(c2cc(Nc3ncnc4cc(Cl)cnc34)ccc2F)CS1(=O)=O` [Example 235, N-(3-((3S)-5-amino-3-(fluoromethyl)-6,6-dimethyl-1,1-dioxido-3,6-dihydro-2H-1,4-thiazin-3-yl)-4-fluorophenyl)-7-chloropyrido[3,2-d]pyrimidin-4-amine], the values for the 50% inhibitory concentration (IC50) (in experiment [1]; in experiment [2]; at Cathepsin D (Cat D)) were 3.26 nM, 30.8 nM and 68200 nM, respectively.

In the case of `CC1(C)C(N)=N[C@](CF)(c2cc(Nc3ncnc4cc(C#N)cnc34)ccc2F)CS1(=O)=O` [Example 236, 4-((3-((3S)-5-amino-3-(fluoromethyl)-6,6-dimethyl-1,1-dioxido-3,6-dihydro-2H-1,4-thiazin-3-yl)-4-fluorophenyl)amino)pyrido[3,2-d]pyrimidine-7-carbonitrile], the IC50 amounted to 0.73 nM in experiment [1], 40.7 nM in experiment [2] and 56100 nM at Cathepsin D (Cat D).

`CCOc1cnc2c(Nc3ccc(F)c([C@]4(CF)CS(=O)(=O)C(C)(C)C(N)=N4)c3)nccc2n1` [Example 237, N-(3-((3S)-5-amino-3-(fluoromethyl)-6,6-dimethyl-1,1-dioxido-3,6-dihydro-2H-1,4-thiazin-3-yl)-4-fluorophenyl)-2-ethoxypyrido[3,4-b]pyrazin-5-amine]: the IC50 in experiment [1] is 2.85 nM; in experiment [2], 40.9 nM; on Cathepsin D (Cat D) it was 661000 nM.

Take `CCOc1cnc2c(Nc3ccc(F)c([C@]4(CF)CS(=O)(=O)C5(CCC5)C(N)=N4)c3)nccc2n1` [Example 238, N-(3-((7S)-9-amino-7-(fluoromethyl)-5,5-dioxido-5-thia-8-azaspiro[3.5]non-8-en-7-yl)-4-fluorophenyl)-2-ethoxypyrido[3,4-b]pyrazin-5-amine]: the IC50 in experiment [1] was 3.99 nM; in experiment [2] it was 117 nM; at Cathepsin D (Cat D), > 400000 nM.

For `COc1cnc2c(Nc3ccc(F)c([C@]4(CF)CS(=O)(=O)C5(CCC5)C(N)=N4)c3)nccc2c1` [Example 239, N-(3-((7S)-9-amino-7-(fluoromethyl)-5,5-dioxido-5-thia-8-azaspiro[3.5]non-8-en-7-yl)-4-fluorophenyl)-3-methoxy-1,7-naphthyridin-8-amine], the IC50 in experiment [1] is 4.15 nM; in experiment [2], 23.7 nM; on Cathepsin D (Cat D), 390000 nM.

On to `NC1=N[C@](CF)(c2cc(Nc3ncnc4cc(Cl)cnc34)ccc2F)CS(=O)(=O)C12CCC2` [Example 240, N-(3-((7S)-9-amino-7-(fluoromethyl)-5,5-dioxido-5-thia-8-azaspiro[3.5]non-8-en-7-yl)-4-fluorophenyl)-7-chloropyrido[3,2-d]pyrimidin-4-amine], for which the IC50 was 1.7 nM in experiment [1], 27.2 nM in experiment [2] and 57100 nM on Cathepsin D (Cat D).

For `N#Cc1cnc2c(Nc3ccc(F)c([C@]4(CF)CS(=O)(=O)C5(CCC5)C(N)=N4)c3)ncc(F)c2c1` [Example 241, 8-((3-((7S)-9-amino-7-(fluoromethyl)-5,5-dioxido-5-thia-8-azaspiro[3.5]non-8-en-7-yl)-4-fluorophenyl)amino)-5-fluoro-1,7-naphthyridine-3-carbonitrile], the IC50 in experiment [1] is 0.9 nM; in experiment [2] it was 47.9 nM; on Cathepsin D (Cat D) it was > 4940 nM.

As to `COc1cnc2c(Nc3ccc(F)c([C@]4(CF)CS(=O)(=O)C5(CCC5)C(N)=N4)c3)ncnc2c1` [Example 242, N-(3-((7S)-9-amino-7-(fluoromethyl)-5,5-dioxido-5-thia-8-azaspiro[3.5]non-8-en-7-yl)-4-fluorophenyl)-7-methoxypyrido[3,2-d]pyrimidin-4-amine], the IC50 was determined as 1.47 nM in experiment [1], 14 nM in experiment [2] and 119000 nM at Cathepsin D (Cat D).

For the molecule `NC1=N[C@](CF)(c2cc(Nc3nccc4cc(Cl)cnc34)ccc2F)CS(=O)(=O)C12CCC2` [Example 245, N-(3-((7S)-9-amino-7-(fluoromethyl)-5,5-dioxido-5-thia-8-azaspiro[3.5]non-8-en-7-yl)-4-fluorophenyl)-3-chloro-1,7-naphthyridin-8-amine], the IC50 in experiment [1] came to 0.56 nM; in experiment [2], 46.5 nM; at Cathepsin D (Cat D) it was 290000 nM.

On to `COc1cnc2c(Nc3ccc(F)c([C@]4(CF)CS(=O)(=O)C5(CCC5)C(N)=N4)c3)nccc2n1` [Example 246, N-(3-((7S)-9-amino-7-(fluoromethyl)-5,5-dioxido-5-thia-8-azaspiro[3.5]non-8-en-7-yl)-4-fluorophenyl)-2-methoxypyrido[3,4-b]pyrazin-5-amine], for which the IC50 was 1.46 nM in experiment [1], 21.6 nM in experiment [2] and 811000 nM at Cathepsin D (Cat D).

On to `COc1cnc2c(Nc3ccc(F)c([C@@]45COC[C@@H]4S(=O)(=O)C(C)(C)C(N)=N5)c3)nccc2n1` [Example 247, N-(3-((4aR,7aR)-3-amino-2,2-dimethyl-1,1-dioxido-7,7a-dihydro-2H-furo[3,4-b][1,4]thiazin-4a(5H)-yl)-4-fluorophenyl)-2-methoxypyrido[3,4-b]pyrazin-5-amine], for which the IC50 in experiment [1] was 704 nM; in experiment [2] it was 2800 nM; on Cathepsin D (Cat D), 477000 nM.

Turning to `COc1cnc2c(Nc3ccc(F)c([C@]45COC[C@H]4S(=O)(=O)C(C)(C)C(N)=N5)c3)nccc2n1` [Example 248, N-(3-((4aS,7aS)-3-amino-2,2-dimethyl-1,1-dioxido-7,7a-dihydro-2H-furo[3,4-b][1,4]thiazin-4a(5H)-yl)-4-fluorophenyl)-2-methoxypyrido[3,4-b]pyrazin-5-amine], the IC50 in experiment [1] was determined as 3.04 nM; in experiment [2], 20.9 nM; at Cathepsin D (Cat D) it was 199000 nM.

For the molecule `CC1(C)C(N)=N[C@@]2(c3cc(Nc4nccc5[nH]c(=O)cnc45)ccc3F)COC[C@H]2S1(=O)=O` [Example 249, 5-((3-((4aS,7aS)-3-amino-2,2-dimethyl-1,1-dioxido-7,7a-dihydro-2H-furo[3,4-b][1,4]thiazin-4a(5H)-yl)-4-fluorophenyl)amino)pyrido[3,4-b]pyrazin-2(1H)-one], the IC50 in experiment [1] is 6.36 nM; in experiment [2] it was 153 nM; on Cathepsin D (Cat D), 102000 nM.
